As a reminder, the IC50 is the concentration that inhibits the measured activity by half.

Counter-ions that a name gives are not always drawn.

This experiment deals with T1, human GluN1/GluN2B NMDA receptors (Homo sapiens, UniProt Q13224).
T1 construct: expressed in transfected cells
T1 sequence (Q13224 27-1484, other chains not shown): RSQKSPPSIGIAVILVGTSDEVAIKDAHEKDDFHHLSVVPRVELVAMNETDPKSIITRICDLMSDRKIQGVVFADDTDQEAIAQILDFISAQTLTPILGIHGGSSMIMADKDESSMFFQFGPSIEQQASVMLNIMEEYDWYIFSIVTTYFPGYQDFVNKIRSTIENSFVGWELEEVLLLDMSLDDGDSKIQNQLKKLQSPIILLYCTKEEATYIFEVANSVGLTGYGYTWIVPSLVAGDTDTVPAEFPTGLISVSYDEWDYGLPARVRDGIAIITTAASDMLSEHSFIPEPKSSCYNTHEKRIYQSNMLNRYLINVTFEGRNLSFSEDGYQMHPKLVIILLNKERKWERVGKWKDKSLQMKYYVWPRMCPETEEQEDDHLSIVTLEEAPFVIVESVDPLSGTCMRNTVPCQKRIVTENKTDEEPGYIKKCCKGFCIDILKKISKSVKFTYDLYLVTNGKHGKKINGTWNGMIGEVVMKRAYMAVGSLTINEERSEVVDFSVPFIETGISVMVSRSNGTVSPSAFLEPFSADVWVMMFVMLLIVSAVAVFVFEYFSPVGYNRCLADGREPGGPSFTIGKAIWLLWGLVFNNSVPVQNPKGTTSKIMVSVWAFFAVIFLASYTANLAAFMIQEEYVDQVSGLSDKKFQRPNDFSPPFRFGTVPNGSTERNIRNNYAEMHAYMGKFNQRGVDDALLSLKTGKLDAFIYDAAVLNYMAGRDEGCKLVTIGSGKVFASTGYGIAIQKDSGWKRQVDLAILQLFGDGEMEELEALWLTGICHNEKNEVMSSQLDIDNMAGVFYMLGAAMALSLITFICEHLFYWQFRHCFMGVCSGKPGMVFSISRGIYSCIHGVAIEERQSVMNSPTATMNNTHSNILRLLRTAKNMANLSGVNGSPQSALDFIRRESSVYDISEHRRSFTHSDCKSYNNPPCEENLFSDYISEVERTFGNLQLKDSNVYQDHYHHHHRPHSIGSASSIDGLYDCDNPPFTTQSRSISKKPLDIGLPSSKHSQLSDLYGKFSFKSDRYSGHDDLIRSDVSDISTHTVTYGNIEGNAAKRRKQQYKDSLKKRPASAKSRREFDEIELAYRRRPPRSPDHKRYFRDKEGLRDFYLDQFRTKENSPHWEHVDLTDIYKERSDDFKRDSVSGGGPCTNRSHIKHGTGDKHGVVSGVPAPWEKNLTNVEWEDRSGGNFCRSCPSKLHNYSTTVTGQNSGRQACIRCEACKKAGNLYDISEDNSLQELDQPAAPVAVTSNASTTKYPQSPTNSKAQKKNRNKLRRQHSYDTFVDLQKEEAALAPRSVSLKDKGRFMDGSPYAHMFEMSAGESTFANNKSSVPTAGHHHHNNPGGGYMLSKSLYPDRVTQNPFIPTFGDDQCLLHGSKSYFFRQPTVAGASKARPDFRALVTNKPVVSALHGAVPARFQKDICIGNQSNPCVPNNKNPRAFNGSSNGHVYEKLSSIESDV
Description: Calcium flux (FLIPR) assay on cloned human NR1/GluN2B ion channels expressed in mammalian cells (standard and HTS variants). In kind it is cell-based. To be noted: cells expressing human GluN1/GluN2B, glutamate and glycine co-agonists. The procedure, abridged: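 Tet-On-induced stable cell line loaded with Calcium 5 dye; compounds applied 5 min (agonist check), then glutamate at ~EC40 plus 10 μM glycine for 5 min. Buffer pH 7.4 with 0.5 mM MgCl2 in dye loading (standard) or 1.5 mM (HTS). FLIPR fluorescence normalized to control wells; (+)MK-801 as antagonist control.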
As for `Cc1cc(Cn2ncc3ncc(-c4ccc(F)c(C(C)(F)F)c4)cc32)no1` [Example 58, 3-[[6-[3-(1,1-Difluoroethyl)-4-fluoro-phenyl]pyrazolo[4,3-b]pyridin-1-yl]methyl]-5-methyl-isoxazole], the half-inhibitory concentration (IC50) stood at 158 nM.

As to `Cc1nc(Cn2ncc3ncc(-c4ccc(F)c(C(F)F)c4)cc32)cs1` [Example 67, 4-[[6-[3-(Difluoromethyl)-4-fluoro-phenyl]pyrazolo[4,3-b]pyridin-1-yl]methyl]-2-methyl-thiazole], the IC50 was found to be 466 nM.

Regarding `Cc1c(F)ccc(-c2cnc3cnn(Cc4cncc(F)c4)c3c2)c1F` [Example 249, 6-(2,4-Difluoro-3-methyl-phenyl)-1-[(5-fluoro-3-pyridyl)methyl]pyrazolo[4,3-b]pyridine trifluoroacetate salt], the IC50 stood at 40 nM.

As to `Fc1c(-c2cnc3cnn(Cc4cncc(Cl)c4)c3c2)cccc1C(F)F` [Example 213, 1-[(5-Chloro-3-pyridyl)methyl]-6-[3-(difluoromethyl)-2-fluoro-phenyl]pyrazolo[4,3-b]pyridine], the IC50 was found to be 68 nM.

Regarding `Fc1ccc(-c2cnc3cnn(Cc4cnccn4)c3c2)cc1OC(F)F` [Example 273, 6-[3-(Difluoromethoxy)-4-fluoro-phenyl]-1-(pyrazin-2-ylmethyl)pyrazolo[4,3-b]pyridine], the IC50 came to 320 nM.

`Cc1noc(Cn2ncc3ncc(-c4cc(C(F)(F)F)ccc4F)cc32)n1` [Example 109, 5-[[6-[2-Fluoro-5-(trifluoromethyl)phenyl]pyrazolo[4,3-b]pyridin-1-yl]methyl]-3-methyl-1,2,4-oxadiazole]: the IC50 was 3260 nM.

As to `Fc1ccc(-c2cnc3cnn(Cc4nnc(C5CC5)o4)c3c2)cc1C(F)F` [Example 99, 2-Cyclopropyl-5-[[6-[3-(difluoromethyl)-4-fluoro-phenyl]pyrazolo[4,3-b]pyridin-1-yl]methyl]-1,3,4-oxadiazole], the IC50 is 70 nM.

Take `Cc1noc(Cn2ncc3ncc(-c4ccc(F)cc4)cc32)n1` [Example 80, 5-[[6-(4-Fluorophenyl)pyrazolo[4,3-b]pyridin-1-yl]methyl]-3-methyl-1,2,4-oxadiazole]: the IC50 amounted to 957 nM.

With `Cc1cc(-c2cnc3c(F)nn(Cc4cccnc4)c3c2)ccc1F` [Example 178, 3-Fluoro-6-(4-fluoro-3-methyl-phenyl)-1-(3-pyridylmethyl)pyrazolo[4,3-b]pyridine], the IC50 was 26 nM.

In the case of `CC(F)(F)c1cc(-c2cnc3cnn(Cc4cccnc4)c3c2)ccc1F` [Example 216, 6-[3-(1,1-Difluoroethyl)-4-fluoro-phenyl]-1-(3-pyridylmethyl)pyrazolo[4,3-b]pyridine], the IC50 was found to be 109 nM.

`FC(F)(F)c1cccc(-c2cnc3cnn(Cc4ccc(C(F)(F)F)nc4)c3c2)c1` [Example 174, 6-[3-(Trifluoromethyl)phenyl]-1-[[6-(trifluoromethyl)-3-pyridyl]methyl]pyrazolo[4,3-b]pyridine]: the IC50 was 11900 nM.

On to `Fc1ccc(-c2cnc3cnn(Cc4cnccn4)c3c2)cc1C(F)F` [Example 272, 6-[3-(Difluoromethyl)-4-fluoro-phenyl]-1-(pyrazin-2-ylmethyl)pyrazolo[4,3-b]pyridine], for which the IC50 stood at 37 nM.

For the compound `Cc1cc(Cn2ncc3ncc(-c4ccc(F)c(C(F)F)c4)cc32)ncn1` [Example 280, 6-[3-(Difluoromethyl)-4-fluoro-phenyl]-1-[(6-methylpyrimidin-4-yl)methyl]pyrazolo[4,3-b]pyridine], the IC50 came out at 226 nM.

Regarding `FC(F)Oc1cc(-c2cnc3cnn(Cc4cccnn4)c3c2)ccc1Cl` [Example 265, 6-[4-Chloro-3-(difluoromethoxy)phenyl]-1-(pyridazin-3-ylmethyl)pyrazolo[4,3-b]pyridine], the IC50 stood at 115 nM.

`Cc1ncccc1Cn1ncc2ncc(-c3ccc(F)c(F)c3)cc21` [Example 188, 6-(3,4-Difluorophenyl)-1-[(2-methyl-3-pyridyl)methyl]pyrazolo[4,3-b]pyridine]: the IC50 worked out at 3620 nM.

Turning to `Cc1c(F)ccc(-c2cnc3cnn(Cc4ccccn4)c3c2)c1F` [Example 244, 6-(2,4-Difluoro-3-methyl-phenyl)-1-(2-pyridylmethyl)pyrazolo[4,3-b]pyridine], the IC50 was 310 nM.

Consider `FC(F)Oc1cc(-c2cnc3cnn(Cc4cn[nH]c4)c3c2)ccc1Cl` [Example 41, 6-[4-Chloro-3-(difluoromethoxy)phenyl]-1-(1H-pyrazol-4-ylmethyl)pyrazolo[4,3-b]pyridine], for which the IC50 came to 423 nM.

On to `CC(=O)Nc1nnc(Cn2ncc3ncc(-c4ccc(F)c(OC(F)F)c4)cc32)s1` [Example 19, N-(5-((6-(3-(Difluoromethoxy)-4-fluorophenyl)-1H-pyrazolo[4,3-b]pyridin-1-yl)methyl)-1,3,4-thiadiazol-2-yl)acetamide], for which the IC50 was > 2990 nM.

Regarding `Cc1cncc(Cn2ncc3ncc(-c4ccc(F)c(C)c4)cc32)c1` [Example 180, 6-(4-Fluoro-3-methyl-phenyl)-1-[(5-methyl-3-pyridyl)methyl]pyrazolo[4,3-b]pyridine trifluoroacetate salt], the IC50 stood at 62 nM.

Turning to `Cc1nnc(Cn2ncc3ncc(-c4ccc(F)c(C)c4)cc32)s1` [Example 132, 2-[[6-(4-Fluoro-3-methyl-phenyl)pyrazolo[4,3-b]pyridin-1-yl]methyl]-5-methyl-1,3,4-thiadiazole], the IC50 came out at 33 nM.

`N#Cc1cccc(Cn2ncc3ncc(-c4ccc(F)c(C(F)F)c4)cc32)c1` [Example 26, 3-[[6-[3-(Difluoromethyl)-4-fluoro-phenyl]pyrazolo[4,3-b]pyridin-1-yl]methyl]benzonitrile]: the IC50 is 62 nM.

For the compound `Fc1ccc(-c2cnc3cnn(Cc4ccncn4)c3c2)cc1C(F)F` [Example 270, 6-[3-(Difluoromethyl)-4-fluoro-phenyl]-1-(pyrimidin-4-ylmethyl)pyrazolo[4,3-b]pyridine], the concentration for half-maximal inhibition (IC50) amounted to 176 nM.

With `FC(F)(F)c1cccc(-c2cnc3cnn(Cc4csnn4)c3c2)c1` [Example 120, 4-[[6-[3-(Trifluoromethyl)phenyl]pyrazolo[4,3-b]pyridin-1-yl]methyl]thiadiazole], the IC50 was 895 nM.

`Cc1noc(Cn2ncc3ncc(-c4cccc(C(F)(F)F)c4F)cc32)n1` [Example 111, 5-[[6-[2-Fluoro-3-(trifluoromethyl)phenyl]pyrazolo[4,3-b]pyridin-1-yl]methyl]-3-methyl-1,2,4-oxadiazole]: the IC50 amounted to 183 nM.

With `Cc1cnc(Cn2ncc3ncc(-c4ccc(F)c(C)c4)cc32)s1` [Example 68, 2-[[6-(4-Fluoro-3-methyl-phenyl)pyrazolo[4,3-b]pyridin-1-yl]methyl]-5-methyl-thiazole], the half-inhibitory concentration (IC50) was determined as 265 nM.

In the case of `Fc1ccc(Cn2ncc3ncc(-c4cccc(C(F)(F)F)c4)cc32)cn1` [Example 169, 1-[(6-Fluoro-3-pyridyl)methyl]-6-[3-(trifluoromethyl)phenyl]pyrazolo[4,3-b]pyridine], the 50% inhibitory concentration (IC50) stood at 234 nM.

On to `Fc1ccc(-c2cnc3cnn(Cc4nncs4)c3c2)cc1C(F)F` [Example 121, 2-[[6-[3-(Difluoromethyl)-4-fluoro-phenyl]pyrazolo[4,3-b]pyridin-1-yl]methyl]-1,3,4-thiadiazole], for which the IC50 is 25 nM.

For `COc1cncc(Cn2ncc3ncc(-c4cc(F)c(F)c(F)c4)cc32)c1` [Example 252, 1-[(5-Methoxy-3-pyridyl)methyl]-6-(3,4,5-trifluorophenyl)pyrazolo[4,3-b]pyridine], the IC50 is 382 nM.

With `Cc1nnc(Cn2ncc3ncc(-c4ccc(F)c(C(F)F)c4)cc32)[nH]1` [Example 13, 6-[3-(Difluoromethyl)-4-fluoro-phenyl]-1-[(5-methyl-4H-1,2,4-triazol-3-yl)methyl]pyrazolo[4,3-b]pyridine], the IC50 came out at 1960 nM.

As for `Fc1ccc(-c2cnc3cnn(Cc4cn[nH]c4)c3c2)cc1OC(F)F` [Example 11, 6-[3-(Difluoromethoxy)-4-fluoro-phenyl]-1-(1H-pyrazol-4-ylmethyl)pyrazolo[4,3-b]pyridine], the IC50 was determined as 486 nM.

In the case of `Cc1nccc(Cn2ncc3ncc(-c4ccc(F)c(C(F)F)c4)cc32)n1` [Example 282, 6-[3-(Difluoromethyl)-4-fluoro-phenyl]-1-[(2-methylpyrimidin-4-yl)methyl]pyrazolo[4,3-b]pyridine], the concentration for half-maximal inhibition (IC50) stood at 387 nM.

`Cc1nnc(Cn2ncc3ncc(-c4ccc(F)c(Cl)c4)cc32)o1` [Example 92, 2-[[6-(3-Chloro-4-fluoro-phenyl)pyrazolo[4,3-b]pyridin-1-yl]methyl]-5-methyl-1,3,4-oxadiazole]: the half-maximal inhibitory concentration (IC50) was found to be 90 nM.

For `Fc1ccc(-c2cnc3cnn(Cc4nnco4)c3c2)cc1C(F)F` [Example 94, 2-[[6-[3-(Difluoromethyl)-4-fluoro-phenyl]pyrazolo[4,3-b]pyridin-1-yl]methyl]-1,3,4-oxadiazole], the concentration for half-maximal inhibition (IC50) came to 58 nM.

As to `COc1cncc(Cn2ncc3ncc(-c4ccc(F)c(Cl)c4)cc32)c1` [Example 196, 6-(3-Chloro-4-fluoro-phenyl)-1-[(5-methoxy-3-pyridyl)methyl]pyrazolo[4,3-b]pyridine], the IC50 worked out at 152 nM.

Regarding `Cc1cc(Cn2ncc3ncc(-c4cccc(C(F)(F)F)c4)cc32)[nH]n1` [Example 14, 1-[(3-Methyl-1H-pyrazol-5-yl)methyl]-6-[3-(trifluoromethyl)phenyl]pyrazolo[4,3-b]pyridine], the IC50 came to 4740 nM.

For `Cn1cnc(Cn2ncc3ncc(-c4cccc(C(F)(F)F)c4)cc32)c1` [Example 36, 1-[(1-Methylimidazol-4-yl)methyl]-6-[3-(trifluoromethyl)phenyl]pyrazolo[4,3-b]pyridine], the IC50 worked out at 668 nM.

As to `Cc1cc(Cn2ncc3ncc(-c4cccc(C(C)(F)F)c4)cc32)no1` [Example 45, 3-[[6-[3-(1,1-Difluoroethyl)phenyl]pyrazolo[4,3-b]pyridin-1-yl]methyl]-5-methyl-isoxazole], the IC50 stood at 44 nM.

(Values after patent US11530210B2, “Substituted heteroaromatic pyrazolo-pyridines and their use as GLUN2B receptor modulators” (JANSSEN PHARMACEUTICA NV, priority 2019, dated 2022).)
